Experiments:
[1] = target: Mer (Homo sapiens (Human), UniProt Q12866); assay: Human Mer kinase assay (33P radiometric, KinaseProfiler); format: biochemical; details: 10 μM ATP
Protocol: (§1) Kinase activity and compound inhibition were investigated using the ^33P-Phosphoryl transfer radiometric kinase assay, performed using the KinaseProfiler™ service of Eurofins Pharma Discovery Services UK Limited. Dose-response experiments were performed using nine compound concentrations in a 96-well microtiter plate. For each assay, all compounds were prepared to a 50× final assay concentration (50 μM) in 100% DMSO, then diluted in a half-log series, with the final top concentration at 1 μM. This working stock of the compound was added to the assay well as the first component in the reaction, followed by the remaining components as detailed in the following assay protocols below. The positive control wells (100% kinase activity) contain all components of the reaction including 2% DMSO (control for solvent effects), except the compound of interest. Blank wells contain all components of the reaction, with the reference inhibitor, staurosporine. This reference compound was used to abolish kinase activity and generated the 0% kinase activity base-line. IC50 values were calculated by nonlinear regression analysis using the sigmoidal dose-response (variable slope) curve fit on XLFit version 5.3 (ID Business Solutions).
Human Mer (residues R557-E882 with H628Q and R794A, 0.7 nM) was incubated with 8 mM MOPS pH 7.0, 0.2 mM EDTA, 30 mM NaCl, 250 μM GGMEDIYFEFMGGKKK (SEQ ID NO. 44), 10 mM magnesium acetate, and 10 μM [γ-^33P-ATP]. The reaction was initiated by the addition of the Mg/ATP mix. After incubation for 40 minutes at room temperature, the reaction was stopped by the addition of phosphoric acid to a concentration of 0.5%. A reaction aliquot of 10 μL was then spotted onto a P30 filtermat and washed four times for 4 minutes in 0.425% phosphoric acid and once in methanol prior to drying and scintillation counting. Incorporated ^33P was measured using the Wallac Microbeta scintillation counter (Perkin Elmer).

[2] = target: Met (Homo sapiens (Human), UniProt P08581); assay: Human Met kinase assay (33P radiometric, KinaseProfiler); format: biochemical; details: 10 μM ATP, read-out: c-Met IC50
Protocol: as §1
Human Met (residues R974-S1390 with A1209G and V1290L, 3.4 nM) was incubated with 8 mM MOPS pH 7.0, 0.2 mM EDTA, 250 μM KKKGQEEEYVFIE (SEQ ID NO. 45), 1 mM sodium orthovanadate, 5 mM […], 10 mM magnesium acetate, and 10 μM [γ-33P-ATP]. The reaction was initiated by the addition of the Mg/ATP mix. After incubation for 40 minutes at room temperature, the reaction was stopped by the addition of phosphoric acid to a concentration of 0.5%. A reaction aliquot of 10 μL was then spotted onto a P30 filtermat and washed four times for 4 minutes in 0.425% phosphoric acid and once in methanol prior to drying and scintillation counting. Incorporated 33P was measured using the Wallac Microbeta scintillation counter (Perkin Elmer).

[3] = target: Human Axl (Homo sapiens (Human), UniProt P30530, Q764R); assay: Human AXL kinase assay (33P radiometric, KinaseProfiler); format: biochemical; details: 10 μM ATP
Protocol: as §1
Human Axl (residues H473-A894 with Q764R, 161 nM) was incubated with 8 mM MOPS pH 7.0, 0.2 mM EDTA, 250 μM KKSRGDYMTMQIG (SEQ ID NO. 43), 10 mM magnesium acetate and 10 μM [γ-33P-ATP]. The reaction was initiated by the addition of the Mg/ATP mix. After incubation for 40 minutes at room temperature, the reaction was stopped by the addition of phosphoric acid to a concentration of 0.5%. A reaction aliquot of 10 μL was then spotted onto a P30 filtermat and washed four times for 4 minutes in 0.425% phosphoric acid and once in methanol prior to drying and scintillation counting. Incorporated ^33P was measured using the Wallac Microbeta scintillation counter (Perkin Elmer).

[4] = target: AXL (Homo sapiens (Human), UniProt P30530); assay: AXL autophosphorylation ELISA in A-172 cells; format: cell-based; details: cellular, Gas6-stimulated, phospho-AXL ELISA
In short: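 A-172 glioblastoma cells, serum-starved 24 h, took compounds for 1 h (8-point curve, 0.3% DMSO) before 15 min stimulation with 1 μg/mL recombinant human Gas6. Lysate phospho-AXL measured by ELISA against a phospho-AXL standard, normalized to DMSO (100%) and reference inhibitor (0%); IC50 from 4-parameter logistic fit.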

[5] = target: KDR (Homo sapiens (Human), UniProt P35968); assay: KDR autophosphorylation ELISA in HUVEC cells; format: cell-based; details: cellular, VEGF165-stimulated, phospho-KDR ELISA
In short: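 Serum-starved (24 h) primary HUVEC were pretreated 1 h with compounds (8-point dilution, 0.3% DMSO final), then stimulated 5 min with 100 ng/mL VEGF165. Lysate phospho-KDR quantified by sandwich ELISA against a phospho-KDR standard; IC50 by 4-parameter fit, normalised to stimulated DMSO and unstimulated controls.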

Chain of Human Axl (P30530 473-894 Q764R): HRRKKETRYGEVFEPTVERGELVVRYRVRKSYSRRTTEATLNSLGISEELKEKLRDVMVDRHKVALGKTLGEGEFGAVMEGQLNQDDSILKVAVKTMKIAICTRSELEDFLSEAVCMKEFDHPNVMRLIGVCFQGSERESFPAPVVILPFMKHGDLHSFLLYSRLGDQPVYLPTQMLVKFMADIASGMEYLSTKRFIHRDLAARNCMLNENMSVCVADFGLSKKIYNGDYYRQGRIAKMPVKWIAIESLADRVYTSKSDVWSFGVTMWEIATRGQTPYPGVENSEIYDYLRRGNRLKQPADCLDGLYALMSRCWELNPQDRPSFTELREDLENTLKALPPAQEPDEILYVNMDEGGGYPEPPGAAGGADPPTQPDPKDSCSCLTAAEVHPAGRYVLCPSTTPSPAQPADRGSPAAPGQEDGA
Chain of Mer (Q12866 557-882): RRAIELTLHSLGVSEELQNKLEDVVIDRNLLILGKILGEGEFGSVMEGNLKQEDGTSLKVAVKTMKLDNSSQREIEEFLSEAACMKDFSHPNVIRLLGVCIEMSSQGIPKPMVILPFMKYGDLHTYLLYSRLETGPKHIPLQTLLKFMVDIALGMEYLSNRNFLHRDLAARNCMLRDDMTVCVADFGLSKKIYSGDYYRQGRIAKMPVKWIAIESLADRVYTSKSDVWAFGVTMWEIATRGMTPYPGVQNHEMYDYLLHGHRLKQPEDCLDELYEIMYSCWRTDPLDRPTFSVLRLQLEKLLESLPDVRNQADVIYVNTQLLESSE
Chain of AXL (P30530 26-894): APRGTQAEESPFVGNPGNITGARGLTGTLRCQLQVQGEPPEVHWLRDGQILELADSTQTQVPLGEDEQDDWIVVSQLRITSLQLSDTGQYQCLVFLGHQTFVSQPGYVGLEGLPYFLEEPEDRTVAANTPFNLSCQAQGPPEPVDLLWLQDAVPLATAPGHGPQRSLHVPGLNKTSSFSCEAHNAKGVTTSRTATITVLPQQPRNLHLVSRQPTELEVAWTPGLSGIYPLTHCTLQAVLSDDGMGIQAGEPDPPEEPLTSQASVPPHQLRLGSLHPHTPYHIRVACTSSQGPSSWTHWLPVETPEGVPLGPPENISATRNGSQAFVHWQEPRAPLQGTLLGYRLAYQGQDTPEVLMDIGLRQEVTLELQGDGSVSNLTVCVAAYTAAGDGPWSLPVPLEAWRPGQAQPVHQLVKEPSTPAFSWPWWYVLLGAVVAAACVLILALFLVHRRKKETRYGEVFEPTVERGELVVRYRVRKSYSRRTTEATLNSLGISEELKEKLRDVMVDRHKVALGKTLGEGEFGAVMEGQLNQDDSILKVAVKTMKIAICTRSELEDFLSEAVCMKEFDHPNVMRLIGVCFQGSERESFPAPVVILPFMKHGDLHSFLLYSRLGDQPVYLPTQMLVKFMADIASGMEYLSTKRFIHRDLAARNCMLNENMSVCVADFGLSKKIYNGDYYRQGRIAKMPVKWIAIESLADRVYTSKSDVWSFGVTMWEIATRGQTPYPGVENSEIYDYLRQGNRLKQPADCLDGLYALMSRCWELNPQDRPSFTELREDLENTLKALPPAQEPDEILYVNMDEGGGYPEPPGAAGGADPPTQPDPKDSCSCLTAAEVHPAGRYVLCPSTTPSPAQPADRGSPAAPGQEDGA
Chain of KDR (P35968 20-1356): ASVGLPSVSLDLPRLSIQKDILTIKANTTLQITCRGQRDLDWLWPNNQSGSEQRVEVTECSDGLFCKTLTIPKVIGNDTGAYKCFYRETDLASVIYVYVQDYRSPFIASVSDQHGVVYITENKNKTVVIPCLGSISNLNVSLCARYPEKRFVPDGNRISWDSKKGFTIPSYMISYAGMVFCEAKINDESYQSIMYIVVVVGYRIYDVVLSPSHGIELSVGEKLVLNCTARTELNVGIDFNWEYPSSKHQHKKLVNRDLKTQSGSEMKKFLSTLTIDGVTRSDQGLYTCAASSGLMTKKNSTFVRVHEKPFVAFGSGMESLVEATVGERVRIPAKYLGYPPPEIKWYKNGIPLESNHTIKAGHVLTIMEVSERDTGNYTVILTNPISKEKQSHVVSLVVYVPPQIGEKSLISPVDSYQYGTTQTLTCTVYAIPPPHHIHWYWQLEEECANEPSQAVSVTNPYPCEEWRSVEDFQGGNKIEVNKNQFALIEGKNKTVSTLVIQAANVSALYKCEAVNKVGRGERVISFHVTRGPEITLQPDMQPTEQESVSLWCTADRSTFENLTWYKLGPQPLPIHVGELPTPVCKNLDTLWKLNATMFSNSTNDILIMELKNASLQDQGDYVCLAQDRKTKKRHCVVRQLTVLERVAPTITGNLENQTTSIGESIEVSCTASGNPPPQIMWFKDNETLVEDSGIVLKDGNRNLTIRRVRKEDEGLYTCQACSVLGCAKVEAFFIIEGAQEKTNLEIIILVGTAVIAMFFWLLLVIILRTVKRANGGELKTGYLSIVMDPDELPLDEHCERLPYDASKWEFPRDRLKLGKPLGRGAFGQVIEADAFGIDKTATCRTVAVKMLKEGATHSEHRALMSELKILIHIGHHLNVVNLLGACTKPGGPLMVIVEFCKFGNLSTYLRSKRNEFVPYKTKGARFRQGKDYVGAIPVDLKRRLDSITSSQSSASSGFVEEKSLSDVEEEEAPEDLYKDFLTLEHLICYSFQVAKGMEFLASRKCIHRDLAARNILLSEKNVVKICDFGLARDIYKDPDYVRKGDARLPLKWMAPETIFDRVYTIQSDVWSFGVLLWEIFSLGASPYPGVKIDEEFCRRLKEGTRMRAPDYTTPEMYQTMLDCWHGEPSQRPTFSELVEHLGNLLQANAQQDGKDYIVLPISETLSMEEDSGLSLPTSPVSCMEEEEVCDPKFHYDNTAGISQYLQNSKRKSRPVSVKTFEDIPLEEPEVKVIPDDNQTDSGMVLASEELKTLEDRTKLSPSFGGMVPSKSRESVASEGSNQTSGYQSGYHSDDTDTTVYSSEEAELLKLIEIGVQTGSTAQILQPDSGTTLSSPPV

SMILES | IC50 [1] [nM] | IC50 [2] [nM] | IC50 [3] [nM] | IC50 [4] [nM] | IC50 [5] [nM]
COc1cc2nccc(Oc3ccc(NC(=O)C4(C(=O)Nc5ccc(F)cc5)CC4)cn3)c2cc1C(=O)O [Compound 13, 4-[5-[[1-[(4-Fluorophenyl)carbamoyl]cyclopropanecarbonyl]-amino]pyridin-2-yl]oxy-7-methoxyquinoline-6-carboxylic acid] | 100 to 1000 | 100 to 1000 | 100 to 1000 | – | –
COc1cc2nccc(Oc3ncc(NC(=O)C4(C(=O)Nc5ccc(F)cc5)CC4)cc3Cl)c2cc1C(=O)O [Compound 14, 4-[3-Chloro-5-[[1-[(4-fluorophenyl)carbamoyl]cyclopropanecarbonyl]amino]pyridin-2-yl]oxy-7-methoxyquinoline-6-carboxylic acid] | 100 to 1000 | 10 to 100 | 100 to 1000 | > 300 | > 300

From patent US11673897B2, “Compounds for the treatment of kinase-dependent disorders” (Exelixis, Inc., priority 2018, dated 2023)
